Measured values: patent US8232402B2, “Quinolinone farnesyl transferase inhibitors for the treatment of synucleinopathies and other indications” (Link Medicine Corporation, priority 2008, dated 2012)
Entries after “also recorded” stand apart in the source; their conditions may differ.

What was measured:
farnesylated UCH-L1 = experiment: Farnesylated UCH-L1 in cortex membrane fraction of α-synuclein transgenic mice (quantitative Western blot); assay type: in vivo; conditions: 35 mg/kg twice a day, 30 days
Method: Farnesyl transferase inhibitors Zarnestra and OSI-754 were administered to mice of the α-synuclein transgenic line described in Masliah et al. (Masliah et al. “Dopaminergic loss and inclusion body formation in alpha-synuclein mice: implications for neurodegenerative disorders” Science 287(5456): 1265-69, 2000; incorporated herein by reference). Animals from this line have α-synuclein neuronal inclusions in the cortex, hippocampus, and the olfactory bulb (Masliah et al. “Dopaminergic loss and inclusion body formation in alpha-synuclein mice: implications for neurodegenerative disorders” Science 287(5456): 1265-69, 2000; incorporated herein by reference). […]
Total α-synuclein levels were analyzed by a sandwich ELISA assay similar to one previously described (El-Agnaf et al. “Detection of oligomeric forms of alpha-synuclein protein in human plasma as a potential biomarker for Parkinson's disease” FASEB J. 20(3):419-25, 2006; incorporated herein by reference). […] Transgenic mice that received Zarnestra had lower α-synuclein protein levels than vehicle-treated transgenic mice and nearly the same as that detected in the non-transgenic group in both the cytoplasmic (FIG. 10) and membrane fractions (FIG. 11), which represent soluble and insoluble α-synuclein, respectively. […] The amount of UCH-L1 was determined by quantitative Western Blot. […]

α-synuclein inclusions = experiment: Inclusion histology in α-synuclein transgenic mice (α-synuclein and ubiquitin immunostaining, Campbell-Switzer); assay type: in vivo
Method: (§1) Farnesyl transferase inhibitors Zarnestra and OSI-754 were administered to mice of the α-synuclein transgenic line described in Masliah et al. (Masliah et al. “Dopaminergic loss and inclusion body formation in alpha-synuclein mice: implications for neurodegenerative disorders” Science 287(5456): 1265-69, 2000; incorporated herein by reference). Animals from this line have α-synuclein neuronal inclusions in the cortex, hippocampus, and the olfactory bulb (Masliah et al. “Dopaminergic loss and inclusion body formation in alpha-synuclein mice: implications for neurodegenerative disorders” Science 287(5456): 1265-69, 2000; incorporated herein by reference). Transgenic mice were orally administered either FTI in 20% cyclodextrin solution or the same volume of vehicle alone twice a day for 30 or 90 days. In some cases, non-transgenic mice also received vehicle twice a day for 30 to 90 days. At the end of treatment, mice were sacrificed, and the brains removed and hemisected. One hemisphere of each was fixed in 4% paraformaldehyde/PBS (pH 7.4), cryoperserved, then sectioned for histology. The other hemisphere was subdivided into four brain regions, including the cortex and hippocampus, that were homogenized and processed into cytoplasmic and membrane fractions.
Formation of α-synuclein inclusions in the cortex and hippocampus was probed by immunostaining with an antibody for human α-synuclein. Cells positive for human α-synuclein were quantified. […] These regions were also analyzed for ubiquitin-immunoreactive inclusions and by the Campbell Switzer method of silver staining. Ubiquitin is known to be a constituent of Lewy bodies and in the α-synculein inclusions found in the transgenic mouse line used in the study (Masliah et al. “Dopaminergic loss and inclusion body formation in alpha-synuclein mice: implications for neurodegenerative disorders” Science 287(5456): 1265-69, 2000; incorporated herein by reference). […] Campbell-Switzer staining is a general marker of Lewy Body type inclusions (Uchihara et al. “Silver stainings distinguish Lewy bodies and glial cytoplasmic inclusions: comparison between Gallyas-Braak and Campbell-Switzer methods” Acta Neuropathol (Berl) 110(3):255-60, 2005; incorporated herein by reference).
Formation of α-synuclein inclusions in the cortex and hippocampus was probed by immunostaining with an antibody for human α-synuclein. Cells positive for human α-synuclein were quantified.

α-synuclein = α-synuclein sandwich ELISA in brain fractions of α-synuclein transgenic mice; assay type: in vivo
Method: as §1
Total α-synuclein levels were analyzed by a sandwich ELISA assay similar to one previously described (El-Agnaf et al. “Detection of oligomeric forms of alpha-synuclein protein in human plasma as a potential biomarker for Parkinson's disease” FASEB J. 20(3):419-25, 2006; incorporated herein by reference). In the cortex of vehicle treated animals, α-synuclein protein levels in the α-synuclein transgenic line are greater than in non-transgenic mice in both cytoplasmic (FIG. 10) and membrane fractions (FIG. 11). Transgenic mice that received Zarnestra had lower α-synuclein protein levels than vehicle-treated transgenic mice and nearly the same as that detected in the non-transgenic group in both the cytoplasmic (FIG. 10) and membrane fractions (FIG. 11), which represent soluble and insoluble α-synuclein, respectively. Farnesylated UCH-L1 in the cortex is contained in the membrane fraction. The amount of UCH-L1 was determined by quantitative Western Blot.

[1] = tested on: α-synuclein in COS-7 cells; experiment: α-synuclein degradation assay in COS-7 cells; assay type: cell-based
Description: Plasmids: C220S cDNA was generated by PCR site-specific mutagenesis. For the PCR, the 5′ primer is uchforw SEQ ID NO: 1 ([…]), and 3′ primer is uchc220s SEQ ID NO:2 (CTAAGA […]). Wt UCH-L1 served as the template. The PCR fragment was inserted into pcDNA vector. For S 18YC220S mutant, S 18Y UCH-L1 served as the template in PCR. For the FLAG tagged UCH-L1, the 5′ primer is FLAGuchforw SEQ ID NO: 3 ([…] CGATGGAG), and the 3′ primer is uchrev SEQ ID NO: 4 ([…]). Wt UCH-L1 or C220S served as the template. PCR fragment was purified and inserted into pcDNA vector. For the FLAG tagged UCH-L3, the 5′ primer is L3HindIII SEQ ID NO: 5 (CTAAAGCTTATGGACTAC […]), the 3′ primer is L3XhoISAA SEQ ID NO: 6 ([…]). […] After 24 hours of incubation, the cells were lysed with Tris buffer (50 mM Tris, 2% SDS, 0.1% NP-40), and subjected to SDS-PAGE, followed by quantitative Western blotting.
The C220S mutation eliminated the ability of S118 to promote α-synuclein accumulation in COS-7 cells but had no effect on the S18Y polymorph (FIG. 2, panel C): the relative amount of 16 kDa α-synuclein was quantified and normalized against the amount of actin in transfected COS-7 cells with the presence of UCH-L1 variants. […]

[2] = tested on: α-synuclein in SH-SY5Y cells; experiment: α-synuclein accumulation in infected SH-SY5Y cells (Western blot); assay type: cell-based; conditions: SH-SY5Y cells infected with α-synuclein adenovirus, normalized to actin
Method: Western Blotting: Following transfer of SDS gels onto NC membrane, all membranes were blocked with 5% non-fat milk in TBST (50 mM Tris-HCl pH7.4, 150 mM NaCl, 0.1% Tween 20), and incubated with primary antibody overnight with 1% BSA in TBST, washed three times with TBST, and incubated with horseradish peroxidase-conjugated secondary antibody for 1 hour (Promega). Bound antibodies were detected using enhanced chemiluminascence (NEM).
Since α-synuclein neurotoxicity is dose-dependent, it follows that accumulation of α-synuclein, caused by UCH-L1 farnesylation, should promote its toxicity. […] These cells express high endogenous levels of UCH-L1. […] The unit of y-axis is 10^5/ml. (F) Cell viability was assessed by the amount of metabolic activity using MTT assay. […] The effect of FTI-277 on the α-synuclein accumulation in the SH-SY5Y infected with α-synuclein-expressing adenovirus were analyzed by Western blotting (B) and the amount of α-synuclein (C) was quantified using NIH Image program and normalized against the amount of actin.

[3] = tested on: primary dopaminergic cultures; experiment: α-synuclein toxicity in primary dopaminergic cultures; assay type: cell-based
[4] = tested on: SH-SY5Y cells overexpressing α-synuclein; experiment: α-synuclein toxicity in SH-SY5Y cells infected with α-synuclein-expressing adenovirus (Trypan blue, MTT); assay type: cell-based
Method: Viral Infection: Viral infection and MTT assay in SH-SY5Y cells: The viruses were amplified and purified according to the published procedure. SH-SY5Y cells were grown on 100 mm petri-dishes and induced with 100 nM retinoic acid for 3-5 days before the virus infection with M.I.O at 75. Viruses were diluted with DPBS to desired M.I.O. After four hours of incubation, 10 ml growth medium was added. On the second day, cells were splitted into 96-well plates and treated with compounds for next 48 hours. The growth medium in each well was replaced with growth medium with 5 ug/ml MTT. Medium was removed after three hours incubation, and 200 ul isopropyl (0.04N HCl) was added into each well. The signal was read at 570 nm.
Viable cell counting: At stated time points, SH-SY5Y cells were trypsinized with 100 ul trypsin-EDTA for 1 minute and neutralized with 400 ul growth medium. Cell suspension was made up by mixing 0.2 ml of cells in growth medium, 0.3 ml of HBSS and 0.5 ml of 0.4% Trypan Blue solution. Viable cell numbers were counted by standard cell counting chamber.
Since α-synuclein neurotoxicity is dose-dependent, it follows that accumulation of α-synuclein, caused by UCH-L1 farnesylation, should promote its toxicity. […] These cells express high endogenous levels of UCH-L1. […] The unit of y-axis is 10^5/ml. (F) Cell viability was assessed by the amount of metabolic activity using MTT assay. […]

UCH-L1 in SH-SY5Y cells = experiment: UCH-L1 membrane association and level in SH-SY5Y cells (2D electrophoresis, Western blot); assay type: cell-based
Method: Membrane fractionation: Cells were harvested by scraping and washed with PBS. Cell pellet was suspended in lysis buffer (50 mM Tris-HCl, 1 mM EDTA) supplemented with protease inhibitor cocktail (Sigma) and homogenized by passing through 26G needles 10 times. Suspension was clarified by spinning at 600 g for 5 minutes. Clarified suspension was ultracentrifuged at 100,000 g for 2 hours and separated into membrane and cytosol. Membrane fraction was washed with washing buffer (50 mM Tris-HCl, 1 mM EDTA 1 M NaCl), and pelleted each time with bench-top centrifuge.
2D electrophoresis: For the isolation of total cellular protein, cultured SH-SY5Y cells maintained as described above were rinsed with ice-cold PBS. Cells were lysed in 1 ml dSDS buffer (50 mM Tris-HCl, pH 8.0 0.1% SDS) supplemented with protease inhibitor cocktail. Lysates were boiled for 3 min, and were treated with Dnase and Rnase as described. Lysates were precipitated with ice-cold acetone for at least 2 hours, and pellets were resuspended in 2D sample buffer (8M urea, 0.5% CHAPS, 0.2% DTT, 0.5% IPG buffer, 0.002% bromophenol blue). 2D electrophoresis was carried out according to manufacture's protocol (Amersham Life Science). 7 cm pH 4-7 strips were used. For SH-SY5Y membrane fraction, culture SH-SY5Y cells were rinsed with cold PBS and harvested with lysis buffer (50 mM Tris-HCl, pH 8.0, 1 mM ZnAc2, 250 mM sucrose). Lysate was passed through 25G needles for several times and spun at 1000 g for 5 min. Supernatant was centrifuged at 200,000 g for 2 hours. Pellet was extensively washed with lysis buffer and extracted with cold acetone. Pellet was resuspended in 2D sample buffer.
This species was presumably the fully processed species: farnesylated, truncated and C-terminally methylated.

[5] = α-synuclein transgenic mice, summary, dose not given

In the case of `Cn1cncc1C(N)(c1ccc(Cl)cc1)c1ccc2c(c1)c(-c1cccc(Cl)c1)cc(=O)n2C` (centres unmarked) [Zarnestra], the “amount of farnesylated UCH-L1” value (farnesylated UCH-L1) is reported as “decreased the amount of farnesylated UCH-L1”, the “Campbell-Switzer stained inclusions versus vehicle” value (α-synuclein inclusions; 35 mg/kg twice a day, 30 days) is reported as “fewer inclusions” and the “ubiquitin-immunoreactive inclusions versus vehicle” value (α-synuclein inclusions; 35 mg/kg twice a day, 30 days) is reported as “fewer ubiquitin-immunoreactive inclusions”. For the same compound, the inclusions versus vehicle (α-synuclein inclusions; 35 mg/kg twice a day, 30 days, oral) was “fewer inclusions”, the “α-synuclein-positive cells per mm^2 versus vehicle” value (α-synuclein inclusions; cortex and hippocampus, 35 mg/kg twice a day, 30 days) was “significantly fewer” and the inclusions versus vehicle (α-synuclein inclusions; [5]) was “fewer inclusions”. The “levels of α-synuclein protein (ELISA)” value (α-synuclein; cortex, cytoplasmic and membrane fractions, 35 mg/kg twice a day, 30 days) was “decreased levels of α-synuclein protein” and the “levels of α-synuclein in the cortex” value (α-synuclein; [5]) was “decrease levels of α-synuclein in the cortex”.

With `CC(=O)N[C@@H](CSC(=O)[C@]1([C@@H](O)C(C)C)NC(=O)[C@H](C)[C@@H]1O)C(=O)O` [lactacystin] the “accumulation of α-synuclein” value ([1]; transfected COS-7 cells, 35 μM lactacystin, 24 hours) was 100%.

In the case of `COC(=O)[C@H](CCSC)NC(=O)c1ccc(NC[C@@H](N)CS)cc1-c1ccccc1` [FTI-277], the “amount of α-synuclein” value [2] is reported as “reduced the amount of α-synuclein”, the α-synuclein levels ([1]; COS-7 cells) is reported as “lowers α-synuclein levels” and the α-synuclein toxicity [3] is reported as “inhibit α-synuclein toxicity”. The “loss of cells (α-synuclein toxicity)” value [4] was “inhibits synuclein toxicity; also recorded: significantly decreased loss of cells”, the “total amount of UCH-L1” value (UCH-L1 in SH-SY5Y cells) was “reduced the total amount of UCH-L1” and the “amount of cytosolic UCH-L1” value (UCH-L1 in SH-SY5Y cells; compared to DMSO) was “without affecting”. The “amount of membrane bound UCH-L1” value (UCH-L1 in SH-SY5Y cells; compared to DMSO) was “significant decrease; also recorded: reducing the amount of membrane-associated protein” and the “rate of turnover of UCH-L1” value (UCH-L1 in SH-SY5Y cells; pulse-chase) was “increased its rate of turnover”.
